“Also recorded” adds a separate entry of the source.
Tested on: mice tissue
Test: In vivo luciferase mRNA expression assays
Conditions: for luciferase expression in tissues, mRNA delivery: intravenous, DOTMA/DOPE w/w=10:1 to mRNA, 6 hours
Description: Peptide dendrimers were diluted to a respective concentration and mixed with mRNA for a desired NP ratio such as NP=0.15:1 or 8:1. The solution was incubated in room temperature for 10 mins. Lipid such as DOTMA/DOPE was diluted to a respective concentration and mixed with the dendrimer-mRNA complexes for a desired NP ratio such as NP-4.7:1. The solution was incubated in room temperature for 20 mins. When required, the solution would be further diluted before injection.
All animal procedures conducted in our studies complied with UK laws and were inclusive of ethics approval. Female CD-1 mice (n=39) aged 6-8 weeks left to habituate for 1-week upon their arrival. All mice were weighed, and the formulations were delivered intravenously (100 μl) via the tail vein using 30G insulin syringes (BD biosciences).
All mice were imaged 6 hours post injection. BLI was performed using an IVIS Lumina II (Perkin Elmer) Imaging system. Mice were administered D-luciferin (30 mg/mL, XenoLight, Perkin Elmer) at a dose of 150 mg/kg. Mice were anaesthetised 6 mins after receiving D-luciferin in a chamber with 5% isoflurane and then placed on a heated imaging platform while being maintained on 2.5% isoflurane. Mice were imaged 10 min post administration of D-luciferin with an exposure time set to ensure the signal acquired was within an effective detection range (open filter, binning 8, f-stop 1). Bioluminescence signal was quantified by measuring photon flux (photons/s) in the defined region of interest (ROI) using the Living Image software (Perkin Elmer). Following in vivo whole-body imaging, the mice were euthanised, cardiac blood taken, and the tissues extracted for ex vivo imaging. Here each tissue was placed into individual wells of a 24-well imaging plate (black sided, Eppendorf) containing 0.3 mg/mL D-luciferin in PBS). The imaging plate was placed in the centre of imaging platform (Lumina II system) and signal was measured using the acquisition settings detailed above. Finally, the tissues were placed in storage vials and flash frozen in liquid nitrogen.
Mice were injected with a composition comprising DOTMA/DOPE, mRNA encoding luciferase and either G1,2,3-RL, (FIG. 10, top panel; the “G1,2,3-RL, lipid and mRNA formulation”) or G1,2-RL,3-LR (FIG. 10, bottom panel: the “G1,2,3-RL, lipid and mRNA formulation”). Each formulation was prepared and injected at an NP ratio of 8:1 and 0.15:1. Mice were prepared for detection of luciferase expression post injection.

“(LR)8(KRL)4(KRL)2KGSC-NH2 [G1,2-RL, 3-LR]” was tested, and the “luciferase expression with PEG2000 lipid” value (DOTMA/DOPE/PEG2000 compared to DOTMA/DOPE) was “attenuated luciferase expression”, the “luciferase expression in tissues, mRNA delivery” value (“luciferase expression in tissues” for short) (NP 0.15:1) was “significant expression in the Gastrocnemius and Quadricep muscle tissues, liver, heart, kidney and adipose tissue” and the “luciferase expression in tissues” value (NP 0.15:1, listed as G1,2-RL,3-LR) was “targets a wide range of immune cell tissues including lung, spleen, and lymph nodes; also recorded: improves efficiency of mRNA delivery to lung, spleen, and lymph nodes”. For the same substance, the “luciferase expression in tissues” value (NP 8:1) was “significant expression in the Gastrocnemius and Quadricep muscle tissues, liver, heart, kidney and adipose tissue; also recorded: significantly enhanced”.

Reference: patent US20240108753A1, “NUCLEIC ACID DELIVERY” (NUNTIUS THERAPEUTICS LIMITED, priority 2021, published 2024)
